Calls of active or inactive are those of the source. The rule behind the calls is not given here.
Experiments:
Pseudomonas aeruginosa [1] = assay: Synergistic antibacterial activity against Pseudomonas aeruginosa PAO1 assessed as reduction in cell viability at 10 to 50 uM incubated for 24 hrs in the presence of 1/8 MIC of tobramycin by LB agar plate method; type: functional, organism-based; conditions: dose 10-50 µM
Pseudomonas aeruginosa [2] = assay: Antibacterial activity against Pseudomonas aeruginosa PAO1 infected in Caenorhabditis elegans assessed as worm survival rate at 50 uM measured after 96 hrs in presence of polymyxin B at 1/2 MIC by bright field microscopic analysis relative to control; type: functional
Pseudomonas aeruginosa [3] = assay: Antivirulence activity in Pseudomonas aeruginosa clinical isolate 0815 assessed as reduction in pyocyanin production at 10 uM incubated for 24 hrs by absorbance based analysis; type: functional, organism-based
Pseudomonas aeruginosa [4] = assay: Induction of Fe3+ chelating activity in Pseudomonas aeruginosa PAO1 assessed as increase in pyoverdine production by measuring fold change at 50 uM incubated for 24 hrs by fluorescence microplate reader
Pseudomonas aeruginosa [5] = assay: Synergistic antibacterial activity against Pseudomonas aeruginosa PAO1 assessed as reduction in cell viability at 10 to 50 uM incubated for 24 hrs in the presence of 1/8 MIC of polymyxin B by LB agar plate method; type: functional, organism-based; conditions: dose 10-50 µM
Pseudomonas aeruginosa [6] = assay: Inhibition of motility in Pseudomonas aeruginosa PAO1 assessed as reduction in swimming movements incubated for 16 hrs by motility assay; type: functional, organism-based; conditions: dose 1.25-50 µM
Pseudomonas aeruginosa [7] = assay: Antibiofilm activity against Pseudomonas aeruginosa PAO1 assessed as decrease in biofilm formation incubated for 24 hrs by LIVE/DEAD BacLight staining based 3D confocal laser scanning microscopy; type: functional, organism-based; conditions: dose 1-10 µM
Pseudomonas aeruginosa [8] = assay: Antivirulence activity in Pseudomonas aeruginosa clinical isolate 1167 assessed as reduction in elastase production at 10 uM incubated for 24 hrs by elastin-congo red dye based absorbance assay; type: functional, organism-based
Pseudomonas aeruginosa [9] = assay: Synergistic antibacterial activity against Pseudomonas aeruginosa clinical isolate 1167 assessed as reduction in bacterial viability at 10 to 50 uM incubated for 24 hrs in presence of 1/2 MIC of tobramycin by LB agar plate method; type: functional, organism-based; conditions: dose 10-50 µM
Pseudomonas aeruginosa [10] = assay: Antivirulence activity in Pseudomonas aeruginosa clinical isolate 1167 assessed as reduction in rhamnolipid production at 10 uM incubated for 24 hrs by absorbance based microtiter plate reader analysis; type: functional, organism-based
Pseudomonas aeruginosa [11] = assay: Synergistic antibacterial activity against Pseudomonas aeruginosa clinical isolate 0815 assessed as reduction in bacterial viability at 10 to 50 uM incubated for 24 hrs in presence of 1/4 MIC of polymyxin B by LB agar plate method; type: functional, organism-based; conditions: dose 10-50 µM
Pseudomonas aeruginosa [12] = assay: Synergistic antibacterial activity against Pseudomonas aeruginosa clinical isolate 1121 assessed as reduction in bacterial viability at 10 to 50 uM incubated for 24 hrs in presence of 1/2 MIC of tobramycin by LB agar plate method; type: functional, organism-based; conditions: dose 10-50 µM
[13] = Inhibition of quorum sensing system in wildtype Pseudomonas aeruginosa PAO1 assessed as inhibition of elastase production incubated for 24 hrs by elastin-congo red dye based absorbance assay
Pseudomonas aeruginosa [14] = assay: Synergistic antibacterial activity against Pseudomonas aeruginosa PAO1 assessed as fold reduction in bacterial survival rate incubated for 24 hrs in presence of ceftazidime by LB agar plate method; type: functional
Pseudomonas aeruginosa [15] = assay: Antibacterial activity against Pseudomonas aeruginosa 27853 assessed as inhibition of bacterial growth incubated for 24 hrs by CLSI protocol based method; type: functional, organism-based
Pseudomonas aeruginosa [16] = assay: Antibiofilm activity against Pseudomonas aeruginosa overexpressing fpvA assessed as inhibition of biofilm formation at 20 uM incubated for 24 hrs by crystal violet staining based analysis relative to control; type: functional
Pseudomonas aeruginosa [17] = assay: Antibacterial activity against Pseudomonas aeruginosa clinical isolate 0807 assessed as inhibition of bacterial growth incubated for 24 hrs by CLSI protocol based method; type: functional, organism-based
Pseudomonas aeruginosa [18] = assay: Synergistic antibacterial activity against Pseudomonas aeruginosa clinical isolate 0815 assessed as reduction in bacterial viability at 10 to 50 uM incubated for 24 hrs in presence of 1/2 MIC of tobramycin by LB agar plate method; type: functional, organism-based; conditions: dose 10-50 µM
[19] = Inhibition of quorum sensing system in Pseudomonas aeruginosa PAO1 transfected with mini-ctx-lasB-lacZ reporter gene assessed as decrease in beta-galactosidase activity incubated for 6 hrs by Miller assay; conditions: dose 1.25-20 µM
Pseudomonas aeruginosa [20] = assay: Synergistic antibacterial activity against Pseudomonas aeruginosa PAO1 assessed as fold reduction in bacterial survival rate incubated for 24 hrs in presence of tetracycline by LB agar plate method; type: functional
Pseudomonas aeruginosa [21] = assay: Synergistic antibacterial activity against Pseudomonas aeruginosa clinical isolate 1167 assessed as reduction in bacterial viability at 10 to 50 uM incubated for 24 hrs in presence of 1/2 MIC of polymyxin B by LB agar plate method; type: functional, organism-based; conditions: dose 10-50 µM
Pseudomonas aeruginosa [22] = assay: Inhibition of motility in Pseudomonas aeruginosa PAO1 assessed as reduction in swarming movements incubated for 16 hrs by motility assay; type: functional, organism-based; conditions: dose 1.25-50 µM
Pseudomonas aeruginosa [23] = assay: Synergistic antibacterial activity against Pseudomonas aeruginosa PAO1 assessed as reduction in cell viability at 10 to 50 uM incubated for 24 hrs in the presence of 1/4 MIC of tobramycin by LB agar plate method; type: functional, organism-based; conditions: dose 10-50 µM
[24] = Inhibition of quorum sensing system in wildtype Pseudomonas aeruginosa PAO1 assessed as inhibition of rhamnolipid production incubated for 24 hrs by absorbance based microtiter plate reader analysis
[25] = Cytotoxicity against African green monkey Vero cells assessed as reduction in cell viability incubated for 24 hrs by MTT assay; type: toxicity, cell-based; conditions: chlorocebus sabaeus

Cc1cc(=O)c(O)c(C(=O)NCCCCCCCCNc2ccnc3cc(Cl)ccc23)n1C.Cl
Activity (Pseudomonas aeruginosa [1]): Active | survival at 50 µM (Pseudomonas aeruginosa [2]): 91.2% | Activity (Pseudomonas aeruginosa [3]): Active | fold change (FC) (Pseudomonas aeruginosa [4]): 16 | Activity (Pseudomonas aeruginosa [5]): Active | inhibition (Pseudomonas aeruginosa [6]): Dose-Dependent Effect | Activity (Pseudomonas aeruginosa [7]): Dose-Dependent Effect | Activity (Pseudomonas aeruginosa [8]): Active | Activity (Pseudomonas aeruginosa [9]): Active | Activity (Pseudomonas aeruginosa [10]): Active | Activity (Pseudomonas aeruginosa [11]): Active | Activity (Pseudomonas aeruginosa [12]): Active | IC50 [13]: 16.7 µM | fold change (FC) (Pseudomonas aeruginosa [14]): <10 | Activity (Pseudomonas aeruginosa [15]): inactive | inhibition at 20 µM (Pseudomonas aeruginosa [16]): ~30% | Activity (Pseudomonas aeruginosa [17]): inactive | Activity (Pseudomonas aeruginosa [18]): Active | inhibition [19]: Dose-Dependent Effect | fold change (FC) (Pseudomonas aeruginosa [20]): <10 | Activity (Pseudomonas aeruginosa [21]): Active | inhibition (Pseudomonas aeruginosa [22]): Dose-Dependent Effect | Activity (Pseudomonas aeruginosa [23]): Active | IC50 [24]: 39.2 µM | CC50 at 24 h [25]: > 800 µM

— ChEMBL document CHEMBL5614443, “Hybrids of 3-Hydroxypyridin-4(1H)-ones and Long-Chain 4-Aminoquinolines as Potent Biofilm Inhibitors of Pseudomonas aeruginosa Potentiate Tobramycin and Polymyxin B Activity” (J Med Chem, 2024)
